The source of these data is article PMC6271041, “Synthesis and Biological Evaluation of Novel 2-Arylalkylthio-5-iodine-6-substituted-benzyl-pyrimidine-4(3H)-ones as Potent HIV-1 Non-Nucleoside Reverse Transcriptase Inhibitors” (Molecules, 2014).

The target in one data set is T1, HIV-1 RT (Human immunodeficiency virus type 1 group M subtype B, UniProt P04585).
T1 construct: The biotin-dUTP was incorporated by reverse transcriptase (Sigma, St. Louis, MO, USA); purchased Sigma
As to the kind of experiment: Inhibitory activity against HIV-1 RT (biotin-dUTP incorporation, colorimetric). Type of data set: biochemical. The note with it: for IC50: mean of three separate experiments, variation less than 15%. The protocol: Oligo(dT) (TaKaRa Co., Otsu, Japan) was immobilized via its 5'-terminal phosphate to Covalink-NH microtiter plates (NUNC Co., Roskilde, Denmark). The biotin-dUTP was incorporated by reverse transcriptase (Sigma, St. Louis, MO, USA). Briefly, a serial concentration of inhibitor was added to the mixture, which contained 50 mmol/L Tris-HCl (pH 8.3), 3 mmol/L MgCl2, 75 mmol/L KCl, 5 mmol/L DTT, 0.13 mg/mL BSA, 10 μg/mL poly (A), 0.75 μM biotin-11-Dutp, 1.5 μM dTTP and HIV-1 RT. After incubation at 37 °C for 1h, washing buffer, which contained 50 mmol/L Tris-HCl (pH 7.5), 0.15 mol/L NaCl, 0.05 mmol/L MgCl2 and 0.02% Tween20, was used to wash the plate. Then each well of the plate was added […] 1% BSA and incubated at room temperature for another 30 min. The plate was washed with the same buffer for 3 times. Before further incubation at 37 °C for 1 h, 50 μL of alkaline phosphatase streptavidin (SA-ALP) solution (100 ng/mL) was added to each well and washed again as above. Finally, 50 μL of p-nitrophenyl phosphate, disodium (PNPP, 1 mg/mL, pH 9.5) was added and incubated at 37 °C for 30 min. 0.5 mol/L NaOH was added to stop the reaction and a colorimetric streptavidin-alkaline phosphatase reporter system was used to detect and quantify the result.

In the next data set the test system is HIV-1SF33. As to the kind of experiment: Inhibitory activity on HIV-1SF33 infection in TZM-bl cells (p24 ELISA). The note with it: Human immunodeficiency virus 1, 168 h, read-out: EC50 /SF33, concentration inhibiting 50% viral replication, HIV-1SF33 infection in TZM-bl cell line, 7 days. Type of data set: cell-based. The protocol:
TZM-bl cells, HIV-1SF33 were obtained from the NIH AIDS Research and Reference Reagent Program (Germantown, MD, USA). The inhibitory activity of the compounds on infection by a laboratory-adapted HIV-1 strain SF33 was tested in TZM-bl cells. Briefly, TZM-bl cells (4 × 10^4/well) were infected by addition of 200 TCID50 of HIV-1, followed by incubation for 2 h at 37 °C before addition of compounds at serial dilutions.

`Cc1cc(C)cc(Cc2nc(SCCc3ccc([N+](=O)[O-])cc3)[nH]c(=O)c2I)c1` [8n, 2-(4-Nitrophenethylthio)-5-iodine-6-(3,5-dimethylbenzyl)uracil] displayed a melting point of 220 to 221 °C. For the same molecule, at HIV-1 RT, the “fold more active compared to nevirapine (HIV-1 RT IC50)” value is “about 10 fold” and the concentration for half-maximal inhibition (IC50) turned out to be 700 nM. The EC50 with HIV-1SF33 came out at 3840 nM.
Take `Cc1cc(C)cc(Cc2cc(=O)[nH]c(SCCOc3ccc([N+](=O)[O-])cc3)n2)c1` [7q, 2-(2-(4-Nitrophenoxy)ethylthio)-6-(3,5-dimethylbenzyl)uracil]: the melting point was in the range of 210 to 214 °C. This molecule gave a 50% inhibitory concentration (IC50) on HIV-1 RT of 590 nM. The EC50 in the data set on HIV-1SF33 was determined as 5070 nM.
In turn, `O=c1[nH]c(SCCOc2ccc([N+](=O)[O-])cc2)nc(Cc2cc(F)cc(F)c2)c1I` [8r, 2-(2-(4-Nitrophenoxy)ethylthio)-5-Iodine-6-(3,5-difluorobenzyl)uracil] gave a melting point of 224 to 226 °C. Further, on HIV-1 RT, the 50% inhibitory concentration (IC50) was found to be 2560 nM. In the data set with HIV-1SF33, the EC50 came out at 4100 nM.
`Cc1cc(C)cc(Cc2nc(SCCOc3ccc([N+](=O)[O-])cc3)[nH]c(=O)c2I)c1` [8q]: the melting point was 215 to 218 °C. This molecule returned an IC50 on HIV-1 RT of 1310 nM. Further, the EC50 in the data set with HIV-1SF33 came out at 9440 nM.
The molecule `CC(=O)c1ccc(CSc2nc(Cc3cc(C)cc(C)c3)c(I)c(=O)[nH]2)cc1` [8h, 2-(4-Acetylbenzylthio)-5-iodine-6-(3,5-Dimethylbenzyl)uracil] yielded a melting point of 201 to 203 °C. For the same molecule, on HIV-1 RT, the “fold more active compared to nevirapine (HIV-1 RT IC50)” value is “about 10 fold” and the IC50 amounted to 410 nM. The EC50 in the data set with HIV-1SF33 stood at 1060 nM.
`O=c1[nH]c(SCc2ccc([N+](=O)[O-])cc2)nc(Cc2cc(F)cc(F)c2)c1I` [8c, 2-(4-Nitrobenzylthio)-5-iodine-6-(3,5-difluorobenzyl)uracil] returned a melting point of 203 to 206 °C. Also, the midpoint of inhibition against HIV-1 RT, the IC50, lay at 5500 nM.
On to `Cc1ccnc2c1NC(=O)c1cccnc1N2C1CC1` [nevirapine, reference compound], for which the EC50 in the data set on HIV-1SF33 was found to be 190 nM.
`O=c1cc(Cc2ccccc2)nc(SCc2ccc([N+](=O)[O-])cc2)[nH]1` [7a, 2-(4-Nitrobenzylthio)-6-benzyluracil] displayed a melting point of 192 to 194 °C. On HIV-1 RT, this molecule registered an IC50 greater than 100000 nM.
In the same order, the values of `O=c1cc(Cc2cc(F)cc(F)c2)nc(SCCOc2ccc([N+](=O)[O-])cc2)[nH]1` [7r, 2-(2-(4-Nitrophenoxy)ethylthio)-6-(3,5-difluorobenzyl)uracil] are 210 to 212 °C and 1310 nM.
The like results for `CC(=O)c1ccc(CSc2nc(Cc3ccccc3)c(I)c(=O)[nH]2)cc1` [8g, 2-(4-Acetylbenzylthio)-5-iodine-6-benzyluracil] were, in that order, 219 to 220 °C and 13800 nM.
Molecule `Cc1cc(C)cc(Cc2cc(=O)[nH]c(SCCc3ccc([N+](=O)[O-])cc3)n2)c1` [7n, 2-(4-Nitrophenethylthio)-6-(3,5-dimethylbenzyl)uracil] displayed a melting point of 212 to 215 °C. Also, the IC50 at HIV-1 RT was found to be 1400 nM. In addition, the EC50 in the data set with HIV-1SF33 is 6120 nM.

As usually defined, the IC50 is the point on the concentration scale where inhibition reaches its midpoint. Low readings indicate inhibition by little substance, high ones a need for much substance. Usually melting point stands for the temperature of the solid-liquid transition.
